From ChEMBL document CHEMBL1201862, “PubChem BioAssay data set” (2004)
Where a name gives a salt, the structure may show the parent alone.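 A five-concentration, 48-hour dose response in 96-well plates underlies each endpoint, interpolated linearly between surrounding concentrations. Abbreviation: GI50, concentration required for 50% inhibition of growth.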 The source made the active and inactive calls. Cut-off read from the data, not from the text of the source: active = GI50 up to about 1.1 µM and inactive = higher.

Experiments:
Experiment in all cases: DTP human tumour cell line panel, 48 h
[1] = test system: A549
[2] = test system: MDA-MB-435
[3] = test system: OVCAR-3
[4] = test system: MCF7
[5] = test system: HCT-116
[6] = test system: SF-295
[7] = test system: HT-29
[8] = test system: DU-145
[9] = test system: OVCAR-5
[10] = test system: SF-539
[11] = test system: SK-MEL-2
[12] = test system: TK-10
[13] = test system: EKVX
[14] = test system: NCI-H522
[15] = test system: T47D
[16] = test system: PC-3
[17] = test system: MOLT-4
[18] = test system: SF-268
[19] = test system: HCT-15
[20] = test system: KM-20L2

Compound	GI50 [1]	GI50 [2]	GI50 [3]	GI50 [4]	GI50 [5]	GI50 [6]	GI50 [7]	GI50 [8]	GI50 [9]	GI50 [10]	GI50 [11]	GI50 [12]	GI50 [13]	GI50 [14]	GI50 [15]	GI50 [16]	GI50 [17]	GI50 [18]	GI50 [19] [µM]	GI50 [20]
COc1cc(/C=C2/C[C@H]3[C@@H]4CC=C5C[C@@H](OC(C)=O)CC[C@]5(C)[C@H]4CC[C@]3(C)NC2=O)cc(OC)c1OC	18 µM (inactive)	36.3 µM (inactive)	31.3 µM (inactive)	25.4 µM (inactive)	26.4 µM (inactive)	26.8 µM (inactive)	38.7 µM (inactive)	20.8 µM (inactive)	27 µM (inactive)	13.1 µM (inactive)	18.7 µM (inactive)	26.5 µM (inactive)	26.6 µM (inactive)	24.6 µM (inactive)	22 µM (inactive)	19 µM (inactive)	16.9 µM (inactive)	24 µM (inactive)	32.7	–
CCN(CC)C(=S)SCC(=O)Nc1nc2c(s1)CCCC2	> 100 µM (inactive)	–	–	–	64.3 µM (inactive)	85.5 µM (inactive)	59.8 µM (inactive)	–	> 100 µM (inactive)	> 100 µM (inactive)	> 100 µM (inactive)	> 100 µM (inactive)	–	28 µM (inactive)	–	–	41.4 µM (inactive)	> 100 µM (inactive)	24.6	> 100 µM (inactive)
O=C1CC[C@@H](S(=O)(=O)c2ccccc2)[C@H](/C=C/c2ccccc2)O1	> 100 µM (inactive)	–	> 100 µM (inactive)	–	> 100 µM (inactive)	> 100 µM (inactive)	> 100 µM (inactive)	–	> 100 µM (inactive)	> 100 µM (inactive)	–	> 100 µM (inactive)	> 100 µM (inactive)	> 100 µM (inactive)	–	–	> 100 µM (inactive)	–	> 100	> 10 µM (inactive)
CC(=O)Oc1ccc(-c2c(OC(C)=O)c(OC(C)=O)c(-c3ccc(OC(C)=O)c(OC(C)=O)c3)c(OC(C)=O)c2OC(C)=O)cc1	17.8 µM (inactive)	16.9 µM (inactive)	15.7 µM (inactive)	23.7 µM (inactive)	18.8 µM (inactive)	6.03 µM (inactive)	18.2 µM (inactive)	16.3 µM (inactive)	12.5 µM (inactive)	18.2 µM (inactive)	16.1 µM (inactive)	15.9 µM (inactive)	0.553 µM (active)	5.46 µM (inactive)	10.6 µM (inactive)	15.9 µM (inactive)	20.2 µM (inactive)	17.7 µM (inactive)	17.1	–
Cc1cccc(C)c1NC(=O)CCC/C(CC(=O)c1ccc(F)cc1)=N\NC(=O)C(=O)NN	> 100 µM (inactive)	–	> 100 µM (inactive)	–	> 100 µM (inactive)	> 100 µM (inactive)	> 100 µM (inactive)	–	> 100 µM (inactive)	> 100 µM (inactive)	> 100 µM (inactive)	> 100 µM (inactive)	> 100 µM (inactive)	–	–	–	> 100 µM (inactive)	> 100 µM (inactive)	> 100	> 100 µM (inactive)
NC(=O)c1ccccc1NC(=O)C(=O)C(C(=O)c1ccc(Cl)c(Cl)c1)C1OC(=O)c2ccccc21 (stereo not given)	43.1 µM (inactive)	–	35.1 µM (inactive)	–	18.7 µM (inactive)	–	34.8 µM (inactive)	–	> 100 µM (inactive)	–	–	–	> 100 µM (inactive)	–	–	–	> 100 µM (inactive)	34.4 µM (inactive)	46.5	46.9 µM (inactive)
O=C(/C=C/c1ccc([N+](=O)[O-])o1)N1CCN(Cc2ccccc2)CC1	16.9 µM (inactive)	–	17.7 µM (inactive)	–	10.8 µM (inactive)	15.3 µM (inactive)	5.81 µM (inactive)	–	17.3 µM (inactive)	6.61 µM (inactive)	–	23.2 µM (inactive)	22.4 µM (inactive)	2.82 µM (inactive)	–	–	11.6 µM (inactive)	14 µM (inactive)	4.41	10.9 µM (inactive)
CN(C)C(=O)CC(C(=O)O)c1c[nH]c2ccccc12 (stereo not given)	> 100 µM (inactive)	–	> 100 µM (inactive)	–	> 100 µM (inactive)	> 100 µM (inactive)	> 100 µM (inactive)	–	–	> 100 µM (inactive)	> 100 µM (inactive)	> 100 µM (inactive)	> 100 µM (inactive)	> 100 µM (inactive)	–	–	> 100 µM (inactive)	–	> 100	> 100 µM (inactive)
Cc1ccc(C)c(NC(=O)CCc2n[nH]c(=S)o2)c1	> 100 µM (inactive)	–	> 100 µM (inactive)	–	> 100 µM (inactive)	> 100 µM (inactive)	> 100 µM (inactive)	–	> 100 µM (inactive)	> 100 µM (inactive)	–	> 100 µM (inactive)	> 100 µM (inactive)	> 100 µM (inactive)	–	–	> 100 µM (inactive)	> 100 µM (inactive)	> 100	> 100 µM (inactive)
CCOC(OCC)c1ccc(/C=C/c2cc(OC)c(OC)c(OC)c2)cc1	27.7 µM (inactive)	–	18 µM (inactive)	–	17 µM (inactive)	19.2 µM (inactive)	16.9 µM (inactive)	–	11.4 µM (inactive)	15.8 µM (inactive)	–	33.4 µM (inactive)	33 µM (inactive)	25.2 µM (inactive)	–	–	–	23.1 µM (inactive)	15.9	18.7 µM (inactive)
Cc1cc2nc(O)c(C(C)C(=O)c3ccc(Cl)cc3)nc2cc1C (stereo not given)	39.8 µM (inactive)	20.1 µM (inactive)	49.1 µM (inactive)	27.5 µM (inactive)	33.6 µM (inactive)	31.7 µM (inactive)	22.1 µM (inactive)	53.1 µM (inactive)	56.1 µM (inactive)	23.4 µM (inactive)	> 100 µM (inactive)	27 µM (inactive)	14.2 µM (inactive)	31.6 µM (inactive)	32.3 µM (inactive)	31 µM (inactive)	27.7 µM (inactive)	47.5 µM (inactive)	44.7	–
O=C1/C(=C(/Br)I)c2ccccc2-c2ccccc21	15.9 µM (inactive)	8.51 µM (inactive)	9.98 µM (inactive)	8.85 µM (inactive)	7.85 µM (inactive)	17 µM (inactive)	6.55 µM (inactive)	16.3 µM (inactive)	11.9 µM (inactive)	14.6 µM (inactive)	8.73 µM (inactive)	8.97 µM (inactive)	18 µM (inactive)	2.09 µM (inactive)	11.9 µM (inactive)	8.34 µM (inactive)	2.21 µM (inactive)	14.1 µM (inactive)	4.34	–
CC(=O)OCc1ccc2oc(=O)c(C(=O)Oc3cccc(Cl)c3)cc2c1	> 100 µM (inactive)	64.4 µM (inactive)	> 100 µM (inactive)	26.2 µM (inactive)	21.2 µM (inactive)	> 100 µM (inactive)	27.5 µM (inactive)	> 100 µM (inactive)	> 100 µM (inactive)	46.2 µM (inactive)	82.4 µM (inactive)	31.5 µM (inactive)	> 100 µM (inactive)	> 100 µM (inactive)	20.6 µM (inactive)	19.1 µM (inactive)	90.2 µM (inactive)	> 100 µM (inactive)	35.5	–
Clc1ncnc2c1nc(C#Cc1ccccc1)n2Cc1ccccc1	84.9 µM (inactive)	11.9 µM (inactive)	3.99 µM (inactive)	23 µM (inactive)	34 µM (inactive)	> 100 µM (inactive)	24.3 µM (inactive)	7.52 µM (inactive)	> 100 µM (inactive)	29.9 µM (inactive)	30 µM (inactive)	> 100 µM (inactive)	13.3 µM (inactive)	16.4 µM (inactive)	39.8 µM (inactive)	40.6 µM (inactive)	3.34 µM (inactive)	40.9 µM (inactive)	4.81	–
CC[N+](C)(CC)CC(C)(C)C(=O)/C=C/c1ccc(/C=C/C(=O)C(C)(C)C[N+](C)(CC)CC)cc1	> 100 µM (inactive)	–	> 100 µM (inactive)	–	> 100 µM (inactive)	> 100 µM (inactive)	> 100 µM (inactive)	–	> 100 µM (inactive)	> 100 µM (inactive)	–	> 100 µM (inactive)	> 100 µM (inactive)	> 100 µM (inactive)	–	–	> 100 µM (inactive)	> 100 µM (inactive)	> 100	> 100 µM (inactive)
Nc1nc(N)c2nc(CNc3ccc(C(=O)NC(CCCCNC(=O)c4ccccc4C(=O)O)C(=O)O)cc3)cnc2n1 (stereo not given)	0.01 µM (active)	0.01 µM (active)	> 100 µM (inactive)	0.01 µM (active)	0.01 µM (active)	< 0.0332 µM (active)	0.01 µM (active)	0.01 µM (active)	> 85.3 µM (inactive)	< 0.0133 µM (active)	68.4 µM (inactive)	0.173 µM (active)	> 34.4 µM (inactive)	5.38 µM (inactive)	0.01 µM (active)	0.01 µM (active)	0.01 µM (active)	0.01 µM (active)	0.01	–
OC(CNc1ccccn1)c1ccccc1 (stereo not given) [PHENYRAMIDOL HYDROCHLORIDE]	> 100 µM (inactive)	> 100 µM (inactive)	> 100 µM (inactive)	> 100 µM (inactive)	> 100 µM (inactive)	> 100 µM (inactive)	> 100 µM (inactive)	> 100 µM (inactive)	> 100 µM (inactive)	> 100 µM (inactive)	> 100 µM (inactive)	> 100 µM (inactive)	> 100 µM (inactive)	> 100 µM (inactive)	> 100 µM (inactive)	> 100 µM (inactive)	> 100 µM (inactive)	> 100 µM (inactive)	> 100	–
